Measured values taken from PubChem BioAssay AID292 (DTP/NCI, 2004).
“And” between values parts separate entries of the source, which are not always exact repeats. Equal entries are not always repeated. Toxic doses and inconclusive results are not listed. Rule for the calls: active = survival T/C of 150% or more; inactive = T/C below 125% in these data. Peptide text beside a SMILES is read from it. * marks the point of attachment. Trt = c1ccc(C(c2ccccc2)(c2ccccc2)*)cc1; Cbz = O=C(OCc1ccccc1)*; Bn = c1ccc(C*)cc1; βAla = NCCC(=O)O

System: B6C3F1 mice, ip Sarcoma M5076, median survival T/C
Test: NCI In Vivo Anticancer Drug Screen. Data for tumor model Sarcoma M5076 (intraperitoneal) in B6C3F1 mice
Details: endpoint: median survival time, higher = longer survival
Procedure, shortened: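 Transplantable tumour in mice; compound-treated vs vehicle-treated groups. Read-out: survival. Value = treated/control ratio.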

[1] = dose: 6.25 mg/kg/injection, schedule: Q04DX004 (ip), vehicle: saline with Tween-80
[2] = dose: 12.5 mg/kg/injection, schedule: Q04DX004 (ip), vehicle: saline with Tween-80
[3] = dose: 6.25 mg/kg/injection, schedule: Q04DX004 (ip), vehicle: Klucel (hydroxypropylcellulose) (HPC)
[4] = dose: 12.5 mg/kg/injection, schedule: Q04DX004 (ip), vehicle: Klucel (hydroxypropylcellulose) (HPC)
[5] = dose: 25.0 mg/kg/injection, schedule: Q04DX004 (ip), vehicle: saline with Tween-80
[6] = dose: 1.0 mg/kg/injection, schedule: Q04DX004 (ip), vehicle: Klucel (hydroxypropylcellulose) (HPC)
[7] = dose: 2.0 mg/kg/injection, schedule: Q04DX004 (ip), vehicle: Klucel (hydroxypropylcellulose) (HPC)
[8] = dose: 50.0 mg/kg/injection, schedule: Q04DX004 (ip), vehicle: saline with Tween-80
[9] = dose: 400.0 mg/kg/injection, schedule: Q04DX004 (ip), vehicle: saline with Tween-80
[10] = dose: 50.0 mg/kg/injection, schedule: Q04DX004 (ip), vehicle: Klucel (hydroxypropylcellulose) (HPC)
[11] = dose: 100.0 mg/kg/injection, schedule: Q04DX004 (ip), vehicle: Klucel (hydroxypropylcellulose) (HPC)
[12] = dose: 200.0 mg/kg/injection, schedule: Q04DX004 (ip), vehicle: Klucel (hydroxypropylcellulose) (HPC)
[13] = dose: 400.0 mg/kg/injection, schedule: Q04DX004 (ip), vehicle: Klucel (hydroxypropylcellulose) (HPC)
[14] = dose: 800.0 mg/kg/injection, schedule: Q04DX004 (ip), vehicle: Klucel (hydroxypropylcellulose) (HPC)

Measured: T/C

Cc1cc(O)c2c(c1O)C(=O)C13C(=C2O)C(=O)C2C(O)C1C1C(O)C3C(=O)C3=C(O)c4c(O)cc(C)c(O)c4C(=O)C321 (stereo not given)
inactive: dose: 1.56 mg/kg/injection, schedule: Q04DX004 (ip), vehicle: saline with Tween-80 118 % of control | dose: 3.12 mg/kg/injection, schedule: Q04DX004 (ip), vehicle: saline with Tween-80 118 % of control | [1] 118 % of control | [2] 124 % of control

COC1OC(COC(C)=O)C(OC(C)=O)C(OC(C)=O)[CH]1[Hg][O]C(C)=O (stereo not given)
inactive: [3] 95 % of control | [4] 96 % of control

Cc1ccoc1
inactive: dose: 16.8 mg/kg/injection, schedule: Q03HX012 (ip), vehicle: saline with Tween-80 101 % of control | dose: 33.3 mg/kg/injection, schedule: Q03HX012 (ip), vehicle: saline with Tween-80 93 % of control | dose: 66.6 mg/kg/injection, schedule: Q03HX012 (ip), vehicle: saline with Tween-80 96 % of control | dose: 133.3 mg/kg/injection, schedule: Q03HX012 (ip), vehicle: saline with Tween-80 100 % of control

COc1cc2c(c3c1c(=O)c1ccccc1n3C)C=CC(C)(C)O2
inactive: [2] 112 % of control | [5] 121 % of control | dose: 166.7 mg/kg/injection, schedule: Q04DX004 (ip), vehicle: saline with Tween-80 110 % of control

COc1ccc([C@@]23Oc4cc(OC)cc(OC)c4[C@]2(O)[C@H](O)[C@H](C(=O)N(C)C)[C@H]3c2ccccc2)cc1
inactive: [6] 97 % of control | [7] 105 % of control | dose: 4.0 mg/kg/injection, schedule: Q04DX004 (ip), vehicle: Klucel (hydroxypropylcellulose) (HPC) 109 % of control | dose: 8.0 mg/kg/injection, schedule: Q04DX004 (ip), vehicle: Klucel (hydroxypropylcellulose) (HPC) 123 % of control

COc1cc([C@@H]2c3cc4c(cc3[C@H](O)[C@H]3COC(=O)[C@H]23)OCO4)cc(OC)c1OC
inactive: dose: 2.0 mg/kg/injection, schedule: Q04DX004 (ip), vehicle: saline with Tween-80 117 % of control | dose: 5.8 mg/kg/injection, schedule: Q04DX004 (ip), vehicle: saline with Tween-80 117 % of control
active: dose: 15.98 mg/kg/injection, schedule: Q04DX004 (ip), vehicle: saline with Tween-80 154 % of control | dose: 44.4 mg/kg/injection, schedule: Q04DX004 (ip), vehicle: saline with Tween-80 151 % of control

O=CC(NC(=O)N(CCCl)N=O)C(O)C(O)C(O)CO (stereo not given)
active: dose: 1.25 mg/kg/injection, schedule: Q04DX005 (ip), vehicle: saline 319 % of control | dose: 2.5 mg/kg/injection, schedule: Q04DX005 (ip), vehicle: saline 319 % of control | dose: 5.0 mg/kg/injection, schedule: Q04DX005 (ip), vehicle: saline 319 % of control | dose: 10.0 mg/kg/injection, schedule: Q04DX005 (ip), vehicle: saline 319 % of control

c1ccc(-c2nc3cc4c(cc3n3cccc23)oc2ccccc24)cc1
inactive: [5] 90 % of control | [8] 101 % of control | [9] 91 % of control

COC(=O)C(CSC(c1ccccc1)(c1ccccc1)c1ccccc1)NC(=O)C(CSCc1ccccc1)NC(=O)CCNC(=O)OCc1ccccc1 (stereo not given) ({Cbz-βAla}-Cys(Bn)-Cys(Trt)-OMe; configuration not given here)
inactive: [10] 102 % of control | [11] 97 % of control | [12] 106 % of control | [13] 89 % of control | [14] 107 % of control

CC1=CCCC2C1(C)CCC(C)C2(C)Cc1cc(O)ccc1O (stereo not given)
inactive: [3] 103 % of control | [4] 99 % of control | dose: 25.0 mg/kg/injection, schedule: Q04DX004 (ip), vehicle: Klucel (hydroxypropylcellulose) (HPC) 101 % of control | [10] 99 % of control | [11] 102 % of control

CCOC(=O)/N=[N+](\[O-])c1ccccc1
inactive: dose: 3.13 mg/kg/injection, schedule: Q04DX004 (ip), vehicle: saline with Tween-80 105 % of control | [1] 97 % of control | [2] 104 % of control | [5] 97 % of control | [8] 101 % of control

COc1cc2c(c(OC)c1OC)-c1ccc(SC)c(=O)cc1[C@@H](NC(C)=O)CC2
inactive: dose: 0.03 mg/kg/injection, schedule: Q04DX004 (ip), vehicle: Klucel (hydroxypropylcellulose) (HPC) 102 % of control | dose: 0.05 mg/kg/injection, schedule: Q04DX004 (ip), vehicle: Klucel (hydroxypropylcellulose) (HPC) 106 % of control | dose: 0.1 mg/kg/injection, schedule: Q04DX004 (ip), vehicle: Klucel (hydroxypropylcellulose) (HPC) 104 % of control and 113 % of control | dose: 0.14 mg/kg/injection, schedule: Q04DX004 (ip), vehicle: Klucel (hydroxypropylcellulose) (HPC) 114 % of control | dose: 0.19 mg/kg/injection, schedule: Q04DX004 (ip), vehicle: Klucel (hydroxypropylcellulose) (HPC) 112 % of control | dose: 0.23 mg/kg/injection, schedule: Q04DX004 (ip), vehicle: Klucel (hydroxypropylcellulose) (HPC) 116 % of control | dose: 0.45 mg/kg/injection, schedule: Q04DX004 (ip), vehicle: Klucel (hydroxypropylcellulose) (HPC) 103 % of control

CCOP(=S)(OCC)OC(=O)C(C)SSC (stereo not given) (tested in a mixture with another compound)
inactive: dose: 37.5 mg/kg/injection, schedule: Q04DX004 (ip), vehicle: saline with Tween-80 96 % of control | dose: 75.0 mg/kg/injection, schedule: Q04DX004 (ip), vehicle: saline with Tween-80 99 % of control | dose: 150.0 mg/kg/injection, schedule: Q04DX004 (ip), vehicle: saline with Tween-80 88 % of control

COC(=O)Nc1cccc(-c2nc3ccc(NC(=O)OC)cc3c(=O)n2-c2ccccc2)c1
active: dose: 133.0 mg/kg/injection, schedule: Q04DX004 (ip), vehicle: Klucel (hydroxypropylcellulose) (HPC) 167 % of control

c1cn[nH]c1
inactive: dose: 25.0 mg/kg/injection, schedule: Q04DX004 (ip), vehicle: saline 93 % of control and 100 % of control | dose: 50.0 mg/kg/injection, schedule: Q04DX004 (ip), vehicle: saline 97 % of control and 106 % of control and 107 % of control | dose: 100.0 mg/kg/injection, schedule: Q04DX004 (ip), vehicle: saline 103 % of control and 104 % of control and 107 % of control | dose: 200.0 mg/kg/injection, schedule: Q04DX004 (ip), vehicle: saline 105 % of control and 107 % of control and 110 % of control | dose: 400.0 mg/kg/injection, schedule: Q04DX004 (ip), vehicle: saline 116 % of control

CN1CCOc2c1cnn(CCO)c2=O
inactive: [5] 105 % of control | [8] 96 % of control | dose: 100.0 mg/kg/injection, schedule: Q04DX004 (ip), vehicle: saline with Tween-80 94 % of control | dose: 200.0 mg/kg/injection, schedule: Q04DX004 (ip), vehicle: saline with Tween-80 99 % of control | [9] 99 % of control

CCCC1(c2ccccc2)C(=O)NCNC1=O
inactive: [10] 99 % of control | [11] 95 % of control | [12] 88 % of control | [13] 88 % of control | [14] 88 % of control

Nc1ccn(C2CC3[O][Sn]([c]4ccccc4)([c]4ccccc4)[O]CC3O2)c(=O)n1 (stereo not given)
inactive: dose: 25.0 mg/kg/injection, schedule: Q04DX004 (ip), vehicle: distilled water + Tween-80 100 % of control | dose: 50.0 mg/kg/injection, schedule: Q04DX004 (ip), vehicle: distilled water + Tween-80 100 % of control | dose: 100.0 mg/kg/injection, schedule: Q04DX004 (ip), vehicle: distilled water + Tween-80 105 % of control | dose: 200.0 mg/kg/injection, schedule: Q04DX004 (ip), vehicle: distilled water + Tween-80 100 % of control | dose: 400.0 mg/kg/injection, schedule: Q04DX004 (ip), vehicle: distilled water + Tween-80 95 % of control

C/C=C(\C)C(=O)OC1C(C)=C2C(C1OC(=O)CCCCC)C(C)(OC(C)=O)CC(OC(=O)CCC)C1(O)C2OC(=O)C1(C)O (stereo not given)
inactive: [6] 97 % of control and 101 % of control | [7] 92 % of control and 101 % of control

O=C1C=CC(=CC=C2C=CN(CCCCCCCCCCCO)C=C2)C=C1
inactive: [1] 102 % of control | [2] 109 % of control | [5] 102 % of control | [8] 111 % of control

[N-]=[N+]=NCCOCn1ccc(=O)[nH]c1=O
inactive: dose: 37.5 mg/kg/injection, schedule: Q04DX004 (ip), vehicle: suspension in saline 102 % of control | dose: 75.0 mg/kg/injection, schedule: Q04DX004 (ip), vehicle: suspension in saline 107 % of control | dose: 150.0 mg/kg/injection, schedule: Q04DX004 (ip), vehicle: suspension in saline 109 % of control | dose: 300.0 mg/kg/injection, schedule: Q04DX004 (ip), vehicle: suspension in saline 103 % of control | dose: 600.0 mg/kg/injection, schedule: Q04DX004 (ip), vehicle: suspension in saline 98 % of control
